Among the data in patent US5530157A, “Anti-inflammatory benzoic acid derivatives” (Scios Nova Inc., priority 1995, dated 1996) are IC50 values, retold here.

Molecules are shown by their SMILES.

The assay relates to human umbilical vein endothelial cells. The experiment in a line: INF-γ HUVEC assay: adherence of PMN to human umbilical vein endothelial cells. The format is cell-based. The conditions noted are these: HUVECs with INF-γ 1 unit/mL 20 hrs, PMN activated with 50 ng/mL TNF, read-out: IC50 to inhibit adhesion, IFN-γ HUVECS. The source says:
Several in vitro assays were employed to determine the ability of compounds of the invention to function as anti-inflammatory agents. One group of assays measured the ability of the compounds to inhibit adherence of polymorphonuclear neutrophils to serum coated wells (in the presence of either TNF-α or PAF) or to human umbilical vein endothelial cells (in the presence of INF-γ). Another group of assays measured the ability of the compounds to inhibit the release of elastase or superoxide from activated neutrophils. These assays were performed in the following manner.
Isolation of PMN: Blood was drawn into syringes containing heparin (1 U/mL), from human volunteers (free of any medication for at least 48 hrs). 30 mL of blood was layered over a gradient of 10 mL 1.077 g/mL Histpaque (Sigma, St. Louis, Mo.), and centrifuged at room temperature, 400×g for 20 min. All subsequent manipulations were carried out at room temperature, with endotoxin free reagents, and using polypropylene pipettes and tubes, to prevent activation of the PMN. The pinkish PMN layer immediately above the RBC was collected and washed 2× with Hank's buffered salt solution with calcium and magnesium, 0.2% glucose, and 10 mM HEPES, pH 7.2 (HBSS++) by centrifugation at 400×g for 10 min. Pellets were suspended in 8 mL 0.9% NaCl, and RBC lysed by the addition of 24 mL water for 40 sec, followed by the addition of 8 mL of 3.6% NaCl. After centrifugation at 200×g for 8 min, RBC ghosts were aspirated from the top of the PMN pellet, and cells washed with HBSS++. PMN adherence to protein substrates: 96 well tissue culture plates were coated with 10% pooled human serum (North American Biological,;, Miami, Fla.) in phosphate buffered saline (PBS) for 1 hr at 37° C., followed by washing 3× with PBS. Test compounds were prepared in DMSO as 100× stocks. PMN (4×10^6 /mL) were preincubated with test compounds for 10 min at 37° C. in serum-coated wells. Tumor necrosis factor (TNF-α) was added to 3 nM or platelet aggregation facor (PAF) to 1 μM, and adherence was carried out for 20 or 10 min, respectively. Nonadherent cells were aspirated, and wells washed two times with warm PBS with calcium and magnesium, with blotting of the inverted plate following each aspiration. Adherent PMN were quantitated using a BCA protein assay (Pierce, Rockford, Ill.).
INF-γHUVEC Assay. Primary human umbilical vein endothelial cells (HUVECs) from Clonetics Corp. (San Diego, Calif.) were seeded at 20,000 cells per wall in a 96 well tissue culture plate that was coated with fibronectin, for 45 min and then twice rinsed with phosphate buffered saline. To the culture media (M199, 80%; FBS, 20%; […] endothelial cell growth factor (Maciag et all, Proc. Natl. Acad. Sci. USA (1979) 76(11):5674-5678), 0.1 mg/mL heparin; 5% CO2; 37° C.) was added INF-γ (R&D Systems) at 1 unit/mL for 20 hrs. Isolated PMNs were loaded with the fluorescent dye BCECF AM (Molecular Probes) by incubating 1×10^7 cells/mL in HBSS with 4 μM dye for 30 min at 37° C. The PMNs were incubated with test compound for 10 min at 37° C., then activated with 50 ng/mL TNF and immediately added to the HUVECs which had been rinsed twice with HBSS+1% human serum. The co-culture plate was incubated at 37° C. for 20 min followed by gentle washing (twice) with HBSS+1% human serum. The extent of adherence was assessed by measuring the amount of fluorescence (485-535 nm filter) in each well with a fluorescence plate reader (Idexx).

With `O=C(O)c1ccc(/C=C/c2ccccc2-c2ccccc2)cc1` [NPC 18730, 4-[2-(biphenyl)-E-ethenyl]benzoic acid], the IC50 (commonly the concentration that gives 50% inhibition) is 25.7 µM. For the molecule `O=C(O)c1ccc(C=Cc2ccccc2Oc2ccccc2)cc1` [NPC 18801, 2'-phenoxy-4-stilbenecarboxylic acid], the IC50 was found to be 52.4 µM.

As to `O=C(O)c1ccc(/C=C/c2ccccc2-c2ccc(Cl)c(Cl)c2)cc1` [NPC 18818, 4-{2-[2-(3,4-dichlorophenyl)phenyl]-(E)-ethenyl] benzoic acid], the IC50 came to 30 µM.
